Results on 14 compounds are retold here after patent publication US12662451B2, “Chemical compounds and uses thereof” (GLAXOSMITHKLINE INTELLECTUAL PROPERTY (NO.4) LIMITED, priority 2023, dated 2026).

In data set [1] the target is T1, recombinant full-length WRN protein (1-1432) (Homo sapiens, UniProt Q14191).
T1 construct: recombinant full-length WRN protein (1-1432)
Kind of data set: WRN unwinding activity, fluorogenic 384-well assay (Example A). It is filed as biochemical. To be noted: WRN unwinding activity, 4 hr; Table 2; read-out: 4 hr UNW pIC50 (converted). The essentials: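 200 pM enzyme (2× stock) preincubated with compound 4 h at ambient temperature, then 200 μM ATP and 12 nM quenched TAMRA-labelled dsDNA (2× stocks) added for 60 min; EDTA-quenched. Buffer 25 mM Tris pH 8.0, 5 mM NaCl, 2 mM MgCl2. Fluorescence at 525/598 nm; pIC50 from four-parameter fit.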

Data set [2] has as its system SW48 human colorectal cancer cells. Kind of data set: Calculated free drug potency in SW48 cell assay, corrected with media free fraction (Example C). The format is cell-based. To be noted: Homo sapiens, SW48, SW48 pCC50 corrected with measured free fraction in cell assay media. In a few lines:
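Compound spiked at nominal 1 μM into cell assay medium and dialysed against PBS (100 mM sodium phosphate, 150 mM NaCl, pH 7.4) by rapid equilibrium dialysis, 4 h, 37 °C, shaking. Percent unbound from LC-MS/MS peak area ratios (240 min vs 0 min); cell assay concentrations corrected by this free fraction.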

Data set [3] has as its system SW48 human colorectal cancer cells (MSI-H cancer cells). Description: SW48 cell viability, CellTiter-Glo, 120 hours (Example B). The following applies: Homo sapiens. Background: ATP-based viability assays read luminescence as a measure of living cells.
The nature of data set [4]: Cell culture media unbound percentage and stability by rapid equilibrium dialysis (Example C). The format is in vitro ADME. The following applies: bovine, cell assay medium (RPMI-1640 with 10% fetal bovine serum), pH 7.4, rapid equilibrium dialysis, 4 hours at 37° C., read-out: Cell Culture Media Binding (% unbound). The essentials: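 Compound spiked into cell culture medium at nominal 1 μM and dialysed against PBS (100 mM sodium phosphate + 150 mM NaCl, pH 7.4) by rapid equilibrium dialysis, triplicate, 4 h at 37° C with shaking. LC-MS/MS peak area ratios gave percent unbound (receiver/donor) and percent stability (240 min vs 0 min).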
A general note: In equilibrium dialysis free small molecules cross a membrane that holds back macromolecules.

The mark [5] stands for this setting: SW48, 120 h, read-out: SW48 pCC50, SW48 cell viability, 120 hours incubation (converted), Table 2.
[6] abbreviates: SW48, read-out: SW48 pCC50, measured potency from Example B, as repeated in Table 3 (converted).

Structures are written as SMILES. Like-named read-outs stand apart in the source and are kept apart here.

T1 sequence (Q14191 whole entry): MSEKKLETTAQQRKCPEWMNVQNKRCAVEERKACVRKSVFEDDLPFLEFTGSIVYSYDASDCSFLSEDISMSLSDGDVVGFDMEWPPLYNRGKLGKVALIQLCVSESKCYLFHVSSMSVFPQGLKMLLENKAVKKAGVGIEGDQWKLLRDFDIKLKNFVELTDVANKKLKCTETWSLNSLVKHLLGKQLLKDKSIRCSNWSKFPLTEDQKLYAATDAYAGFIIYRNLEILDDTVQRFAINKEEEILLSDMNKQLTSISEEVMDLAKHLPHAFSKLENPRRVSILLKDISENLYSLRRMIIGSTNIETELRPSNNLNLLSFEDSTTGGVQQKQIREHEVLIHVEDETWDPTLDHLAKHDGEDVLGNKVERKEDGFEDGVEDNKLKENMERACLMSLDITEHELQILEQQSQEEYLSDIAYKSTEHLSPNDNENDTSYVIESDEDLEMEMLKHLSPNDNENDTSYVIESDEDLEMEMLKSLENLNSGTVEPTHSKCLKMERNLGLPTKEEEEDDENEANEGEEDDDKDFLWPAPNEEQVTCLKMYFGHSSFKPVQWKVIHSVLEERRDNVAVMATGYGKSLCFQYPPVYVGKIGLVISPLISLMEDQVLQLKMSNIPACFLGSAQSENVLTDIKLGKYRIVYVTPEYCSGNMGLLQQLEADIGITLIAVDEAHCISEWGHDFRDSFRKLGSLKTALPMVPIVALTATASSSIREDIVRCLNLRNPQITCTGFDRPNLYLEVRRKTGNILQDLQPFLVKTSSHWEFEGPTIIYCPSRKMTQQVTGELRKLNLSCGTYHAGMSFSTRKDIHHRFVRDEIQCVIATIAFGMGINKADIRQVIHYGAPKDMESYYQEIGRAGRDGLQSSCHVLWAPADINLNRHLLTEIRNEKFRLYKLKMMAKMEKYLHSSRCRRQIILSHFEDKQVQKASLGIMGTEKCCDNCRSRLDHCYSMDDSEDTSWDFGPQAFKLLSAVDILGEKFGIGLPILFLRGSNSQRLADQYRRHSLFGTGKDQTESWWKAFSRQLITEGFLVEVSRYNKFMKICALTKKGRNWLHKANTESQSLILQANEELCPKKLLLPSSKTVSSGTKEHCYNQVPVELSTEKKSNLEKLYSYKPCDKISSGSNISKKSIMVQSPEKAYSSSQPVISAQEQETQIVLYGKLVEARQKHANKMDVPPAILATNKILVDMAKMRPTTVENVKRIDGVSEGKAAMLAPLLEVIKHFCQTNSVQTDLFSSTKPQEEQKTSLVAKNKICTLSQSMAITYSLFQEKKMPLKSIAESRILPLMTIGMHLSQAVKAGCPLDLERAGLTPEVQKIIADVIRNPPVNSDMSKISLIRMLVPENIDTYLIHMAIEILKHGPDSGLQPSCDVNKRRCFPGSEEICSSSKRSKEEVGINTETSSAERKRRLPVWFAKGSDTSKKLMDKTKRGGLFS

On to `CN1CCN(C)c2cc(S(=O)(=O)N(C)c3ccc([C@H]4CCC[C@@H](C(=O)Nc5ccc(C(F)(F)F)cc5F)[C@@H]4C(=O)O)cc3)ccc21` [Example 123, (1R,2R,6S)-2-((2-fluoro-4-(trifluoromethyl)phenyl)carbamoyl)-6-(4-((N,1,4-trimethyl-1,2,3,4-tetrahydroquinoxaline)-6-sulfonamido)phenyl)cyclohexane-1-carboxylic acid], for which, in data set [1], the IC50 was 3.98 nM. The figures for the CC50 in data set [2], in data set [3] (setting [5]) and in data set [3] (setting [6]) were 3.55 nM, 501 nM and 501 nM, respectively. For the same compound, the fraction unbound at 4 h, 1 µM in data set [4] was 0.0071.
For `Cc1nc2cc(S(=O)(=O)N(C)c3ccc([C@H]4CCC[C@@H](C(=O)Nc5ccc(C(F)(F)F)cc5F)[C@@H]4C(=O)O)cc3)cnc2n1C` [Example 124, (1R,2R,6S)-2-((2-fluoro-4-(trifluoromethyl)phenyl)carbamoyl)-6-(4-((N,2,3-trimethyl-3H-imidazo[4,5-b]pyridine)-6-sulfonamido)phenyl)cyclohexane-1-carboxylic acid], the IC50 in data set [1] was 3.98 nM. Also, the CC50 in data set [2] was 49 nM; in data set [3] (setting [5]), 501 nM; in data set [3] (setting [6]) it was 501 nM. Moreover, the fraction unbound at 4 h, 1 µM in data set [4] was 0.097.
For `Cc1nc2cc(S(=O)(=O)N(C)c3ccc([C@H]4CCC[C@@H](C(=O)Nc5ccc(C(F)(F)F)cc5F)[C@@H]4C(=O)O)cc3)ncc2n1C` [Example 125, (1R,2R,6S)-2-((2-fluoro-4-(trifluoromethyl)phenyl)carbamoyl)-6-(4-((N,2,3-trimethyl-3H-imidazo[4,5-c]pyridine)-6-sulfonamido)phenyl)cyclohexane-1-carboxylic acid], the IC50 in data set [1] is 2 nM. In addition, the values for the CC50 in data set [2], in data set [3] (setting [5]) and in data set [3] (setting [6]) were 69.2 nM, 1580 nM and 1580 nM, respectively. In addition, in data set [4], the fraction unbound at 4 h, 1 µM came to 0.0433.
For the compound `Cc1nc2cc(S(=O)(=O)N(C)c3ccc([C@H]4CCC[C@@H](C(=O)Nc5ccc(C(F)(F)F)cc5F)[C@@H]4C(=O)O)cc3)cc(F)c2n1C` [Example 126, (1R,2R,6S)-2-((2-fluoro-4-(trifluoromethyl)phenyl)carbamoyl)-6-(4-((7-fluoro-N, 1,2-trimethyl-1H-benzo[d]imidazole)-5-sulfonamido)phenyl)cyclohexane-1-carboxylic acid], the IC50 in data set [1] was 6.31 nM. The CC50 in data set [2] was 36.3 nM; in data set [3] (setting [5]), 631 nM; in data set [3] (setting [6]) it was 631 nM. The fraction unbound at 4 h, 1 µM in data set [4] came to 0.058.
With `Cc1nc2cc(S(=O)(=O)N(C)c3ccc([C@H]4CCC[C@@H](C(=O)Nc5ccc(C(F)(F)F)cc5F)[C@@H]4C(=O)O)cc3)c(F)cc2n1C` [Example 127, (1R,2R,6S)-2-((2-fluoro-4-(trifluoromethyl)phenyl)carbamoyl)-6-(4-((6-fluoro-N,1,2-trimethyl-1H-benzo[d]imidazole)-5-sulfonamido)phenyl)cyclohexane-1-carboxylic acid], the IC50 in data set [1] is 3.98 nM. The CC50 is 44.7 nM in data set [2], 1000 nM in data set [3] (setting [5]) and 1000 nM in data set [3] (setting [6]). Also, the fraction unbound at 4 h, 1 µM in data set [4] amounted to 0.0443.
For the compound `Cc1nc2c(F)c(S(=O)(=O)N(C)c3ccc([C@H]4CCC[C@@H](C(=O)Nc5ccc(C(F)(F)F)cc5F)[C@@H]4C(=O)O)cc3)ccc2n1C` [Example 128, (1R,2R,6S)-2-((2-fluoro-4-(trifluoromethyl)phenyl)carbamoyl)-6-(4-((4-fluoro-N,1,2-trimethyl-1H-benzo[d]imidazole)-5-sulfonamido)phenyl)cyclohexane-1-carboxylic acid], in data set [1], the IC50 is 3.98 nM. The figures for the CC50 in data set [2], in data set [3] (setting [5]) and in data set [3] (setting [6]) were 45.7 nM, 1000 nM and 1000 nM, respectively. For the same compound, the fraction unbound at 4 h, 1 µM in data set [4] is 0.0452.
With `Cc1nc2cc(S(=O)(=O)N(C)c3ccc([C@H]4CCC[C@@H](C(=O)Nc5ccc(C(F)(F)F)cc5F)[C@@H]4C(=O)O)cc3)cc(Cl)c2n1C` [Example 129, (1R,2S,6R)-2-(4-((7-chloro-N,1,2-trimethyl-1H-benzo[d]imidazole)-5-sulfonamido)phenyl)-6-((2-fluoro-4-(trifluoromethyl)phenyl)carbamoyl)cyclohexane-1-carboxylic acid], the IC50 in data set [1] is 20 nM. In addition, the CC50 is 9.12 nM in data set [2], 631 nM in data set [3] (setting [5]) and 631 nM in data set [3] (setting [6]). For the same compound, the fraction unbound at 4 h, 1 µM in data set [4] is 0.0143.
As for `CN(c1ccc([C@H]2CCC[C@@H](C(=O)Nc3ccc(C(F)(F)F)cc3F)[C@@H]2C(=O)O)cc1)S(=O)(=O)c1ccc2c(c1)nc(C1CC1)n2C` [Example 130, (1R,2S,6R)-2-(4-((2-cyclopropyl-N,1-dimethyl-1H-benzo[d]imidazole)-5-sulfonamido)phenyl)-6-((2-fluoro-4-(trifluoromethyl)phenyl)carbamoyl)cyclohexane-1-carboxylic acid], the IC50 in data set [1] is 6.31 nM. Besides, the CC50 in data set [2] is 16.2 nM; in data set [3] (setting [5]), 501 nM; in data set [3] (setting [6]) it was 501 nM. Also, the fraction unbound at 4 h, 1 µM in data set [4] stood at 0.0326.
Consider `CC(C)c1nc2cc(S(=O)(=O)N(C)c3ccc([C@H]4CCC[C@@H](C(=O)Nc5ccc(C(F)(F)F)cc5F)[C@@H]4C(=O)O)cc3)ccc2n1C` [Example 132, (1R,2R,6S)-2-((2-fluoro-4-(trifluoromethyl)phenyl)carbamoyl)-6-(4-((2-isopropyl-N, 1-dimethyl-1H-benzo[d]imidazole)-5-sulfonamido)phenyl)cyclohexane-1-carboxylic acid], for which the IC50 in data set [1] was 12.6 nM. Besides, the CC50 in data set [2] is 21.9 nM; in data set [3] (setting [5]) it was 631 nM; in data set [3] (setting [6]), 631 nM. Moreover, in data set [4], the fraction unbound at 4 h, 1 µM came out at 0.0349.
Turning to `CCO[C@@H]1C[C@H](c2ccc(N(C)S(=O)(=O)c3ccc4c(c3)nc(N(C)C)n4C)cc2)[C@@H](C(=O)O)[C@H](C(=O)Nc2ccc(C(F)(F)F)cc2F)C1` [Example 139, (1R,2S,4R,6R)-2-(4-((2-(dimethylamino)-N,1-dimethyl-1H-benzo[d]imidazole)-5-sulfonamido)phenyl)-4-ethoxy-6-((2-fluoro-4-(trifluoromethyl)phenyl)carbamoyl)cyclohexane-1-carboxylic acid], the IC50 in data set [1] was 1.58 nM. The CC50 in data set [2] was 5.13 nM; in data set [3] (setting [5]), 100 nM; in data set [3] (setting [6]) it was 100 nM. Also, in data set [4], the fraction unbound at 4 h, 1 µM came out at 0.0518.
Regarding `CCO[C@@H]1C[C@H](c2ccc(N(C)S(=O)(=O)c3ccc4c(c3)ncn4C)cc2)[C@@H](C(=O)O)[C@H](C(=O)Nc2ccc(C(F)(F)F)cc2F)C1` [Example 140, (1R,2S,4R,6R)-2-(4-((N,1-dimethyl-1H-benzo[d]imidazole)-5-sulfonamido)phenyl)-4-ethoxy-6-((2-fluoro-4-(trifluoromethyl)phenyl)carbamoyl)cyclohexane-1-carboxylic acid], the IC50 in data set [1] is 2.51 nM. Besides, the CC50 in data set [2] was 15.8 nM; in data set [3] (setting [5]) it was 158 nM; in data set [3] (setting [6]) it was 158 nM. Besides, the fraction unbound at 4 h, 1 µM in data set [4] came out at 0.101.
Regarding `CCO[C@@H]1C[C@H](c2ccc(N(C)S(=O)(=O)c3cnc4c(c3)nc(C)n4C)cc2)[C@@H](C(=O)O)[C@H](C(=O)Nc2ccc(C(F)(F)F)cc2F)C1` [Example 141, (1R,2R,4R,6S)-4-ethoxy-2-((2-fluoro-4-(trifluoromethyl)phenyl)carbamoyl)-6-(4-((N,2,3-trimethyl-3H-imidazo[4,5-b]pyridine)-6-sulfonamido)phenyl)cyclohexane-1-carboxylic acid], the IC50 in data set [1] was 3.16 nM. Also, the figures for the CC50 in data set [2], in data set [3] (setting [5]) and in data set [3] (setting [6]) were 70.8 nM, 631 nM and 631 nM, respectively. Besides, the fraction unbound at 4 h, 1 µM in data set [4] came out at 0.112.
As for `Cc1nc2cc(S(=O)(=O)N(C)c3ccc([C@H]4CCC[C@@H](C(=O)Nc5ccc(C(F)(F)F)nc5)[C@@H]4C(=O)O)cc3)ccc2n1C` [Example 172, (1R,2R,6S)-2-((6-(trifluoromethyl)pyridin-3-yl)carbamoyl)-6-(4-((N,1,2-trimethyl-1H-benzo[d]imidazole)-5-sulfonamido)phenyl)cyclohexane-1-carboxylic acid], the IC50 in data set [1] is 3.98 nM. In addition, the values for the CC50 in data set [2], in data set [3] (setting [5]) and in data set [3] (setting [6]) were 219 nM, 1260 nM and 1260 nM, respectively. In data set [4], the fraction unbound at 4 h, 1 µM was 0.176.
In the case of `Cc1nc2cc(S(=O)(=O)N(C)c3ccc([C@H]4CCC[C@@H](C(=O)Nc5ccc(C(F)(F)F)cc5)[C@@H]4C(=O)O)cc3)ccc2n1C` [Example 173, (1R,2R,6S)-2-((4-(trifluoromethyl)phenyl)carbamoyl)-6-(4-((N,1,2-trimethyl-1H-benzo[d]imidazole)-5-sulfonamido)phenyl)cyclohexane-1-carboxylic acid], in data set [1], the IC50 is 5.01 nM. Also, the CC50 in data set [2] was 10.2 nM; in data set [3] (setting [5]), 631 nM; in data set [3] (setting [6]), 631 nM. Besides, in data set [4], the fraction unbound at 4 h, 1 µM came to 0.0163.
